Assay results as given in patent publication US6420313B1, “Thienylalkylamino-1,3,5-triazines and the use thereof as herbicides” (Bayer Aktiengesellschaft, priority 1998, dated 2002).

Columns and labels:
Format in all cases: in vivo
Viola [1] = assay: Post-emergence test/greenhouse, Viola; conditions: 500 g of ai./ha, after three weeks
Protocol: (§1) Solvent: 5 parts by weight of acetone
(§2) Emulsifier: 1 part by weight of alkylaryl polyglycol ether
(§3) To produce a suitable preparation of active compound, 1 part by weight of active compound is mixed with the stated amount of solvent, the stated amount of emulsifier is added and the concentrate is diluted with water to the desired concentration.
(§4) Test plants of a height of 5-15 cm are sprayed with the preparation of active compound such that the particular amounts of active compound desired are applied per unit area. The concentration of the spray liquor is chosen so that the particular amounts of active compound desired are applied in 1000 l of water/ha.
(§5) After three weeks, the degree of damage to the plants is rated in % damage in comparison to the development of the untreated control.
(§6) 0%=no effect (like untreated control)

Datura [2] = assay: Post-emergence test/greenhouse, Datura; conditions: 500 g of ai./ha, after three weeks
Protocol: as §1, §2, §3, §4, §5, §6

[3] = test system: crop plants, such as, for example, cotton, maize, wheat and barley; assay: Pre-emergence test, tolerance by crop plants; conditions: result in words
Protocol: as §1, §2, §3
(§7) Seeds of the test plants are sown in normal soil. After about 24 hours, the soil is sprayed with the preparation of active compound such that the particular amount of active compound desired is applied per unit area. The concentration of the spray liquor is chosen so that the particular amount of active compound desired is applied in 1000 liters of water per hectare.
as §5, §6

[4] = test system: crop plants, such as, for example, maize, barley and wheat; assay: Post-emergence test, tolerance by crop plants; conditions: result in words
Protocol: as §1, §2, §3, §4, §5, §6

wheat [5] = assay: Post-emergence test/greenhouse, wheat; conditions: 500 g of ai./ha, after three weeks
Protocol: as §1, §2, §3, §4, §5, §6

Ipomoea = assay: Post-emergence test/greenhouse, Ipomoea; conditions: 500 g of ai./ha, after three weeks
Protocol: as §1, §2, §3, §4, §5, §6

Setaria [6] = assay: Post-emergence test/greenhouse, Setaria; conditions: after three weeks
Protocol: as §1, §2, §3, §4, §5, §6

Solanum [7] = assay: Post-emergence test/greenhouse, Solanum; conditions: 500 g of ai./ha, after three weeks
Protocol: as §1, §2, §3, §4, §5, §6

weeds [8] = assay: Post-emergence test, activity against weeds; conditions: result in words
Protocol: as §1, §2, §3, §4, §5, §6

weeds [9] = assay: Pre-emergence test, activity against weeds; conditions: result in words
Protocol: as §1, §2, §3, §7, §5, §6

barley [10] = assay: Post-emergence test/greenhouse, barley; conditions: 500 g of ai./ha, after three weeks
Protocol: as §1, §2, §3, §4, §5, §6

Viola [11] = assay: Pre-emergence test/greenhouse, Viola; conditions: 500 g of ai./ha, after three weeks
Protocol: as §1, §2, §3, §7, §5, §6

Abutilon = assay: Post-emergence test/greenhouse, Abutilon; conditions: 1000 g of ai./ha, after three weeks
Protocol: as §1, §2, §3, §4, §5, §6

Amaranthus [12] = assay: Post-emergence test/greenhouse, Amaranthus; conditions: 1000 g of ai./ha, after three weeks
Protocol: as §1, §2, §3, §4, §5, §6

maize [13] = assay: Post-emergence test/greenhouse, maize; conditions: 1000 g of ai./ha, after three weeks
Protocol: as §1, §2, §3, §4, §5, §6

Sinapis = assay: Post-emergence test/greenhouse, Sinapis; conditions: 1000 g of ai./ha, after three weeks
Protocol: as §1, §2, §3, §4, §5, §6

maize [14] = assay: Pre-emergence test/greenhouse, maize; conditions: 500 g of ai./ha, after three weeks
Protocol: as §1, §2, §3, §7, §5, §6

Matricaria = assay: Pre-emergence test/greenhouse, Matricaria; conditions: 500 g of ai./ha, after three weeks
Protocol: as §1, §2, §3, §7, §5, §6

Amaranthus [15] = assay: Pre-emergence test/greenhouse, Amaranthus; conditions: 500 g of ai./ha, after three weeks
Protocol: as §1, §2, §3, §7, §5, §6

Setaria [16] = assay: Pre-emergence test/greenhouse, Setaria; conditions: 500 g of ai./ha, after three weeks
Protocol: as §1, §2, §3, §7, §5, §6

barley [17] = assay: Pre-emergence test/greenhouse, barley; conditions: 500 g of ai./ha, after three weeks
Protocol: as §1, §2, §3, §7, §5, §6

Solanum [18] = assay: Pre-emergence test/greenhouse, Solanum; conditions: 500 g of ai./ha, after three weeks
Protocol: as §1, §2, §3, §7, §5, §6

Digitaria [19] = assay: Pre-emergence test/greenhouse, Digitaria; conditions: 500 g of ai./ha, after three weeks
Protocol: as §1, §2, §3, §7, §5, §6

Veronica = assay: Pre-emergence test/greenhouse, Veronica; conditions: 504 h, 500 g of ai./ha, after three weeks, read-out: degree of damage, Veronica
Protocol: as §1, §2, §3, §7, §5, §6

Chenopodium = assay: Pre-emergence test/greenhouse, Chenopodium; conditions: 500 g of ai./ha, after three weeks
Protocol: as §1, §2, §3, §7, §5, §6

wheat [20] = assay: Pre-emergence test/greenhouse, wheat; conditions: 500 g of ai./ha, after three weeks
Protocol: as §1, §2, §3, §7, §5, §6

Cyperus = assay: Pre-emergence test/greenhouse, Cyperus; conditions: 500 g of ai./ha, after three weeks
Protocol: as §1, §2, §3, §7, §5, §6

Alopecurus = assay: Pre-emergence test/greenhouse, Alopecurus; conditions: 500 g of ai./ha, after three weeks
Protocol: as §1, §2, §3, §7, §5, §6

cotton = assay: Pre-emergence test/greenhouse, cotton; conditions: 500 g of ai./ha, after three weeks
Protocol: as §1, §2, §3, §7, §5, §6

Lolium = assay: Pre-emergence test/greenhouse, Lolium; conditions: 500 g of ai./ha, after three weeks
Protocol: as §1, §2, §3, §7, §5, §6

Digitaria [21] = assay: Post-emergence test/greenhouse, digitaria; conditions: 500 g of ai./ha, after three weeks
Protocol: as §1, §2, §3, §4, §5, §6

Datura [22] = assay: Pre-emergence test/greenhouse, Datura; conditions: 500 g of ai./ha, after three weeks
Protocol: as §1, §2, §3, §7, §5, §6

## CCC(CCc1ccc(Br)s1)Nc1nc(N)nc(C(C)F)n1 (racemic) [Example 4]
Viola [1]
  degree of damage, Viola: 100%
Datura [2]
  degree of damage, Datura: 95%
[3]
  tolerance by crop plants: largely tolerated well
[4]
  tolerance by crop plants: tolerated well
Wheat [5]
  degree of damage, wheat: 0%
Ipomoea
  degree of damage, Ipomoea: 95%
Setaria [6]; 500 g of ai./ha
  degree of damage, Setaria: 80%
Solanum [7]
  degree of damage, Solanum: 95%
Weeds [8]
  activity against weeds: strong activity against weeds
Weeds [9]
  activity against weeds: strong activity against weeds
Barley [10]
  degree of damage, barley: 0%

## CCC(CCc1cc(C)sc1C)Nc1nc(N)nc(C(C)F)n1 (stereo not shown) [drawing 253]
Viola [11]
  degree of damage, Viola: 100%

## CC(CCCc1cccs1)Nc1nc(N)nc(C(C)(C)F)n1 (stereo not shown) [Example 1, 2-amino-4-(1-fluoro-1-methyl-ethyl)-6-(1-methyl-4-(thien-2-yl)-butylamino)-1,3,5-triazine]
Abutilon
  degree of damage, Abutilon: 95%
[3]
  tolerance by crop plants: largely tolerated well
[4]
  tolerance by crop plants: tolerated well
Setaria [6]; 1000 g of ai./ha
  degree of damage, Setaria: 80%
Weeds [8]
  activity against weeds: strong activity against weeds
Weeds [9]
  activity against weeds: strong activity against weeds
Amaranthus [12]
  degree of damage, Amaranthus: 100%
Maize [13]
  degree of damage, maize: 30%
Sinapis
  degree of damage, Sinapis: 100%

## CCC(CCc1cc(Br)cs1)Nc1nc(NC(C)=O)nc(C(C)F)n1 (stereo not shown) [drawing 228]
Maize [14]
  degree of damage, maize: 0%

## CCC(CCc1sccc1Br)Nc1nc(NC(C)=O)nc(C(C)F)n1 (stereo not shown) [drawing 252]
Matricaria
  degree of damage, Matricaria: 100%

## CCC(CCc1sccc1Br)Nc1nc(N)nc(C(C)(C)F)n1 (stereo not shown) [drawing 230]
Amaranthus [15]
  degree of damage, Amaranthus: 100%

## CCC(CCc1cc(Br)cs1)Nc1nc(NC(C)=O)nc(C(C)F)n1 (stereo not shown) [drawing 248]
Setaria [16]
  degree of damage, Setaria: 95%
Barley [17]
  degree of damage, barley: 0%
Viola [11]
  degree of damage, Viola: 100%

## CCC(CCc1ccc(Br)s1)Nc1nc(N)nc(C(C)(C)F)n1 (stereo not shown) [drawing 237]
Solanum [18]
  degree of damage, Solanum: 100%
Digitaria [19]
  degree of damage, Digitaria: 100%
Veronica
  pest or weed control at 500 g/ha: 100%
Chenopodium
  degree of damage, Chenopodium: 100%

## CCC(CCc1sccc1Br)Nc1nc(NC(C)=O)nc(C(C)F)n1 (stereo not shown) [drawing 242]
Solanum [18]
  degree of damage, Solanum: 100%
Veronica
  pest or weed control at 500 g/ha: 100%

## CCC(CCc1sccc1Br)Nc1nc(N)nc(C(C)(C)F)n1 (stereo not shown) [drawing 240]
Veronica
  pest or weed control at 500 g/ha: 100%

## CCC(CCc1sccc1Br)Nc1nc(NC(C)=O)nc(C(C)F)n1 (stereo not shown) [drawing 232]
Wheat [20]
  degree of damage, wheat: 0%
Amaranthus [15]
  degree of damage, Amaranthus: 100%

## CCC(CCc1sccc1Br)Nc1nc(N)nc(C(C)(C)F)n1 (stereo not shown) [drawing 250]
Matricaria
  degree of damage, Matricaria: 100%
Cyperus
  degree of damage, Cyperus: 100%

## CCC(CCc1cc(Br)cs1)Nc1nc(NC(C)=O)nc(C(C)(C)F)n1 (stereo not shown) [drawing 229]
Alopecurus
  degree of damage, Alopecurus: 95%
Wheat [20]
  degree of damage, wheat: 0%

## CCC(CCc1sccc1Br)Nc1nc(NC(C)=O)nc(C(C)F)n1 (stereo not shown) [drawing 262]
cotton
  degree of damage, cotton: 0%

## CCC(CCc1cc(C)sc1C)Nc1nc(NC(C)=O)nc(C(C)(C)F)n1 (stereo not shown) [drawing 264]
Lolium
  degree of damage, Lolium: 90%

## CCC(CCc1cc(Br)cs1)Nc1nc(NC(C)=O)nc(C(C)F)n1 (racemic) [Example 6]
Viola [1]
  degree of damage, Viola: 100%
Datura [2]
  degree of damage, Datura: 100%
[3]
  tolerance by crop plants: largely tolerated well
[4]
  tolerance by crop plants: tolerated well
Wheat [5]
  degree of damage, wheat: 0%
Ipomoea
  degree of damage, Ipomoea: 100%
Solanum [7]
  degree of damage, Solanum: 100%
Weeds [8]
  activity against weeds: strong activity against weeds
Weeds [9]
  activity against weeds: strong activity against weeds
Barley [10]
  degree of damage, barley: 0%
Digitaria [21]
  degree of damage, Digitaria: 90%

## CCC(CCc1sccc1Br)Nc1nc(N)nc(C(C)F)n1 (stereo not shown) [drawing 231]
Amaranthus [15]
  degree of damage, Amaranthus: 100%

## CCC(CCc1sccc1Br)Nc1nc(N)nc(C(C)F)n1 (stereo not shown) [drawing 261]
Datura [22]
  degree of damage, Datura: 100%
cotton
  degree of damage, cotton: 0%

## CCC(CCc1ccc(Br)s1)Nc1nc(N)nc(C(C)F)n1 (stereo not shown) [drawing 226]
Wheat [20]
  degree of damage, wheat: 0%
Maize [14]
  degree of damage, maize: 0%
